Experimental data from ChEMBL document CHEMBL1137322, “Arylmethyloxyphenyl derivatives: small molecules displaying P-glycoprotein inhibition” (J Med Chem, 2006).
The source made the active and inactive calls. The calls are words filed in the database; no cut-off is given here.

Legend:
[1] = system: NCI/ADR-RES; experiment: Cytotoxicity against MCF7/Adr cells at 100 uM after 48 hrs; assay type: functional, Homo sapiens
[2] = system: Caco-2; experiment: Inhibition of vinblastine-induced ATPase activation in Caco-2 cells; assay type: functional
[3] = molecular target: T1, 5-hydroxytryptamine receptor 1A (Homo sapiens, UniProt P08908); experiment: Binding affinity to 5HT1A receptor
T1 sequence (P08908 whole entry): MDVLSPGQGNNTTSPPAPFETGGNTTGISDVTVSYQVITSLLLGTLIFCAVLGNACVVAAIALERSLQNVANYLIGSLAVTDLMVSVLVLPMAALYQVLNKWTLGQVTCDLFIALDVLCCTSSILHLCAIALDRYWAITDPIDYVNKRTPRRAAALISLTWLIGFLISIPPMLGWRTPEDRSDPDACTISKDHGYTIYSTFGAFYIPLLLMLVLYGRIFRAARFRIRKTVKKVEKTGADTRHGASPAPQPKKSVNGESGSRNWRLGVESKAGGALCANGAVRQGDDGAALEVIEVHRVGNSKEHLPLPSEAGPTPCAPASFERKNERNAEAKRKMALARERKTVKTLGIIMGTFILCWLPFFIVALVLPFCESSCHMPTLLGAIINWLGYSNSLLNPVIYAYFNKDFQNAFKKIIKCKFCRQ

[4] = molecular target: D(2) dopamine receptor (Homo sapiens, UniProt P14416); experiment: Binding affinity to D2 receptor
[5] = system: Caco-2; experiment: Inhibition of ATPase measured as increase in ATP level in Caco-2 cells at 20 uM relative to vinblastine after 120 mins; assay type: functional, Homo sapiens; parameters: scale not given: the % may be the effect or the level left
[6] = molecular target: T2, ATP-dependent translocase ABCB1 (Homo sapiens, UniProt P08183); experiment: Inhibition of Pgp measured as doxorubicin accumulation in MCF7/Adr cells at 20 nM by flow cytometry; assay type: functional, cell-based; details: nci/adr-res, 0.02 µM
[7] = molecular target: T2, ATP-dependent translocase ABCB1; experiment: Inhibition of Pgp measured as inhibition of [3H]vinblastine basolateral to apical transport in Caco-2 cells; assay type: functional, cell-based
[8] = system: Caco-2; experiment: Inhibition of ATPase measured as ATP availability in Caco-2 cells at 20 nM after 60 mins relative to control; assay type: functional, Homo sapiens; parameters: scale not given: the % may be the effect or the level left
[9] = system: Caco-2; experiment: Inhibition of ATPase measured as ATP availability in Caco-2 cells at 20 nM after 90 mins relative to control; assay type: functional, Homo sapiens; parameters: scale not given: the % may be the effect or the level left
[10] = system: Caco-2; experiment: Inhibition of ATPase measured as ATP availability in Caco-2 cells at 20 nM after 120 mins relative to control; assay type: functional, Homo sapiens; parameters: scale not given: the % may be the effect or the level left

Sequence of D(2) dopamine receptor (P14416 whole entry): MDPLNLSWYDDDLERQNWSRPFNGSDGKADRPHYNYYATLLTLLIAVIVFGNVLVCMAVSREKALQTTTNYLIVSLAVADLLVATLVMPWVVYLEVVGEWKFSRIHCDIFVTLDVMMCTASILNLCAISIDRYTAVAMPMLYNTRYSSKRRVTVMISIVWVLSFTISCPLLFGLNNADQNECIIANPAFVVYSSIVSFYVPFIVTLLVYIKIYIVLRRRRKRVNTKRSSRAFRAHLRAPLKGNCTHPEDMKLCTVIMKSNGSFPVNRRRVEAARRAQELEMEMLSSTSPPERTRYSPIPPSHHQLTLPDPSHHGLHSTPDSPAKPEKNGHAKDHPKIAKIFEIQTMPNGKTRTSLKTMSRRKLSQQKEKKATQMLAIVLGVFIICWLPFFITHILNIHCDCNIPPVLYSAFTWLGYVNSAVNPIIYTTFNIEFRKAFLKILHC
T2 sequence (P08183 whole entry): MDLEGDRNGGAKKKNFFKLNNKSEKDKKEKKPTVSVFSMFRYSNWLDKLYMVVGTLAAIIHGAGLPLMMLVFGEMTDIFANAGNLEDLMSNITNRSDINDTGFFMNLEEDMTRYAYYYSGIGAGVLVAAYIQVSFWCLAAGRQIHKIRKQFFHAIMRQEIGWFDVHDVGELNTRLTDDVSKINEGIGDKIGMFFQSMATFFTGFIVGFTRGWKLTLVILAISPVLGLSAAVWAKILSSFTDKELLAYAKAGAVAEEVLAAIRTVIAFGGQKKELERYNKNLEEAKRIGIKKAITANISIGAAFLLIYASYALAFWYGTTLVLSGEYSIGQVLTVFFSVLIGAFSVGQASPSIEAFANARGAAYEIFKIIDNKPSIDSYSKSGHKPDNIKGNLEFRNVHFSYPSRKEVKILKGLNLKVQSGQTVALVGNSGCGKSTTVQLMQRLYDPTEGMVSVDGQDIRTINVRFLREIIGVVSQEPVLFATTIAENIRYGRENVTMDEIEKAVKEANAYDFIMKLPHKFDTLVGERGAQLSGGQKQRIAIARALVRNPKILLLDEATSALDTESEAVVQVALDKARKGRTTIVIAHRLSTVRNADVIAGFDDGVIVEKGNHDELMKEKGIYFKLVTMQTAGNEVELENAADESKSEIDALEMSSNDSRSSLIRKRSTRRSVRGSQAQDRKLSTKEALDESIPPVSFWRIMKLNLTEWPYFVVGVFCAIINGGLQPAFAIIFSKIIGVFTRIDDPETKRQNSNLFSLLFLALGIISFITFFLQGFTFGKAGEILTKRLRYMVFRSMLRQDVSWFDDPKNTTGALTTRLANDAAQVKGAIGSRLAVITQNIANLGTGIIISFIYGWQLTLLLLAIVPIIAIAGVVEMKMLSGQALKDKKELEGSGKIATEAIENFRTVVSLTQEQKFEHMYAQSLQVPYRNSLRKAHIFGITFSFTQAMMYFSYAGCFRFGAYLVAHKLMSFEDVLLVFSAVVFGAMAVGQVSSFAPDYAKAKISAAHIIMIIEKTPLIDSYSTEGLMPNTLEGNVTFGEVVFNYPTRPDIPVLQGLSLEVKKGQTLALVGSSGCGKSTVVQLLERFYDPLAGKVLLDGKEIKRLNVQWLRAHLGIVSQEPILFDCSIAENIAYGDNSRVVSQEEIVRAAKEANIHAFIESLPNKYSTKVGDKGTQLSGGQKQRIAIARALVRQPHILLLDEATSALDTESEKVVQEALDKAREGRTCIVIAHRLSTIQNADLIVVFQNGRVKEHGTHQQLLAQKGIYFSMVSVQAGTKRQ

COc1ccc(CCN(C)CCCC(C#N)(c2ccc(OC)c(OC)c2)C(C)C)cc1OC (centres undefined)
Activity [1]: 95%

COc1cccc(CCc2ccccc2OCc2ccccn2)c1
Activity ([2]; Homo sapiens): inactive
Ki [3]: 5 µM
Ki [4]: 5 µM
Activity [5]: 41%
Activity [6]: Active
Activity [1]: 8%
EC50 [7]: 27.6 µM

c1ccc(CCc2ccccc2OCc2cccnc2)cc1
Activity [2]: 100 µM
Ki [3]: 5 µM
Ki [4]: 5 µM
Activity [1]: 8%
EC50 [7]: 125 µM

COc1cccc(CCc2ccccc2OCc2cccc(OC)c2)c1
Activity ([2]; Homo sapiens): inactive
Ki [3]: 5 µM
Ki [4]: 5 µM
Activity [5]: 41%
Activity [6]: Active
Activity [1]: 8%
EC50 [7]: 17.2 µM

COc1cc2c(cc1OC)CN(CCc1ccc(NC(=O)c3cccc4c(=O)c5cccc(OC)c5[nH]c34)cc1)CC2
Activity ([2]; Homo sapiens): inactive

c1ccc(CCc2ccccc2OCc2ccccn2)cc1
Activity ([2]; Homo sapiens): inactive
Ki [3]: 5 µM
Ki [4]: 5 µM
Activity [5]: 15%
Activity [1]: 8%
EC50 [7]: 100 µM

COc1cccc(CCc2ccccc2OCc2ccccc2)c1
Activity ([2]; Homo sapiens): inactive
Ki [3]: 5 µM
Ki [4]: 5 µM
Activity [5]: 19%
Activity [1]: 8%
EC50 [7]: 92.8 µM

CC[C@]1(O)C[C@@H]2CN(CCc3c([nH]c4ccccc34)[C@@](C(=O)OC)(c3cc4c(cc3OC)N(C)[C@H]3[C@@](O)(C(=O)OC)[C@H](OC(C)=O)[C@]5(CC)C=CCN6CC[C@]43[C@@H]65)C2)C1 [VINBLASTINE]
Activity [8]: 81%
Activity [9]: 72%
Activity [10]: 42%

c1ccc(CCc2ccccc2OCc2ccccc2)cc1
Activity [2]: 50 µM
Ki [3]: 5 µM
Ki [4]: 5 µM
Activity [1]: 8%

COc1cccc(CCc2ccccc2OCc2cccnc2)c1
Activity [2]: 400 µM
Ki [3]: 5 µM
Ki [4]: 5 µM
Activity [1]: 8%
